Data from ChEMBL document CHEMBL3885861, “Open TG-GATES”.

Species: Rattus norvegicus
Assay: Open TG-GATES - Regimen: Daily Repeat
Assay type: toxicity, organism-based, Sprague-Dawley
Parameters: regimen Daily Repeat, gender Male, age 6 weeks
Conditions: in vivo, po, 600 mg/kg, route gavage, dose level High; for APTT / Bas / Eos / Fbg / Hb / Ht / Lym / MCH / MCHC / MCV / Mono / Neu / PT / Plat / RBC / Ret / WBC: tissue Blood; for KIDNEY_L / KIDNEY_R / KIDNEY_TOTAL: tissue Kidney; for LIVER: tissue Liver; for A/G / ALP / ALT / AST / BUN / CRE / Ca / Cl / DBIL / GLC / IP / K / LDH / Na / PL / RALB / TBIL / TC / TG / TP / gamma-GTP: tissue Plasma

C[C@](N)(Cc1ccc(O)c(O)c1)C(=O)O [METHYLDOPA]
TERMINAL_BW (72 h, time 3 day): 188.1 g
APTT (72 h, time 3 day): 17.3 s
Bas (72 h, time 3 day): 0%
Eos (72 h, time 3 day): 1.2%
Fbg (72 h, time 3 day): 240 mg/dL
Hb (72 h, time 3 day): 14.2 g/dL
Ht (72 h, time 3 day): 41.8%
Lym (72 h, time 3 day): 83.2%
MCH (72 h, time 3 day): 21.4 pg
MCHC (72 h, time 3 day): 34%
MCV (72 h, time 3 day): 62.9 fL
Mono (72 h, time 3 day): 2.4%
Neu (72 h, time 3 day): 12.6%
PT (72 h, time 3 day): 12.8 s
Plat (72 h, time 3 day): 108 x10_4/uL
RBC (72 h, time 3 day): 665.2 x10_4/ul
Ret (72 h, time 3 day): 4.2%
WBC (72 h, time 3 day): 54.3 x10_2/uL
KIDNEY_L (72 h, time 3 day): 0.9 g
KIDNEY_R (72 h, time 3 day): 0.9 g
KIDNEY_TOTAL (72 h, time 3 day): 1.7 g
LIVER (72 h, time 3 day): 8.1 g
A/G (72 h, time 3 day): 0.8
ALP (72 h, time 3 day): 1746 IU/L
ALT (72 h, time 3 day): 54.4 IU/L
AST (72 h, time 3 day): 74 IU/L
BUN (72 h, time 3 day): 18.2 mg/dL
CRE (72 h, time 3 day): 0.2 mg/dL
Ca (72 h, time 3 day): 10.9 mg/dL
Cl (72 h, time 3 day): 106.6 meq/L
DBIL (72 h, time 3 day): 0.01 mg/dL
GLC (72 h, time 3 day): 167.2 mg/dL
IP (72 h, time 3 day): 7.8 mg/dL
K (72 h, time 3 day): 4.1 meq/L
LDH (72 h, time 3 day): 72.2 IU/L
Na (72 h, time 3 day): 146.2 meq/L
PL (72 h, time 3 day): 153 mg/dL
RALB (72 h, time 3 day): 2.6 g/dL
TBIL (72 h, time 3 day): 0.054 mg/dL
TC (72 h, time 3 day): 95.6 mg/dL
TG (72 h, time 3 day): 37.2 mg/dL
TP (72 h, time 3 day): 5.5 g/dL
gamma-GTP (72 h, time 3 day): 1 IU/L
TERMINAL_BW ([…], time 7 day): 207.4 g
TERMINAL_BW ([…], time 14 day): 241.7 g
TERMINAL_BW ([…], time 28 day): 321.4 g
APTT ([…], time 7 day): 16.1 s
Bas ([…], time 7 day): 0%
Eos ([…], time 7 day): 1.2%
Fbg ([…], time 7 day): 259 mg/dL
Hb ([…], time 7 day): 14.4 g/dL
Ht ([…], time 7 day): 42.1%
Lym ([…], time 7 day): 81.6%
MCH ([…], time 7 day): 20.5 pg
MCHC ([…], time 7 day): 34.2%
MCV ([…], time 7 day): 60 fL
Mono ([…], time 7 day): 2.8%
Neu ([…], time 7 day): 14.4%
PT ([…], time 7 day): 12.2 s
Plat ([…], time 7 day): 106.1 x10_4/uL
RBC ([…], time 7 day): 702 x10_4/ul
Ret ([…], time 7 day): 3.6%
WBC ([…], time 7 day): 67.6 x10_2/uL
APTT ([…], time 14 day): 16.5 s
Bas ([…], time 14 day): 0%
Eos ([…], time 14 day): 0.8%
Fbg ([…], time 14 day): 277 mg/dL
Hb ([…], time 14 day): 14.2 g/dL
Ht ([…], time 14 day): 40.9%
Lym ([…], time 14 day): 83.8%
MCH ([…], time 14 day): 21.1 pg
MCHC ([…], time 14 day): 34.7%
MCV ([…], time 14 day): 60.8 fL
Mono ([…], time 14 day): 1.8%
Neu ([…], time 14 day): 13%
PT ([…], time 14 day): 14.2 s
Plat ([…], time 14 day): 111.5 x10_4/uL
RBC ([…], time 14 day): 673.2 x10_4/ul
Ret ([…], time 14 day): 4.6%
WBC ([…], time 14 day): 86.9 x10_2/uL
APTT ([…], time 28 day): 16.8 s
Bas ([…], time 28 day): 0%
Eos ([…], time 28 day): 1.2%
Fbg ([…], time 28 day): 300.8 mg/dL
Hb ([…], time 28 day): 14.9 g/dL
Ht ([…], time 28 day): 43.2%
Lym ([…], time 28 day): 75.4%
MCH ([…], time 28 day): 19.7 pg
MCHC ([…], time 28 day): 34.5%
MCV ([…], time 28 day): 57.2 fL
Mono ([…], time 28 day): 2%
Neu ([…], time 28 day): 21.2%
PT ([…], time 28 day): 14.1 s
Plat ([…], time 28 day): 101.5 x10_4/uL
RBC ([…], time 28 day): 756.4 x10_4/ul
Ret ([…], time 28 day): 2.4%
WBC ([…], time 28 day): 68.4 x10_2/uL
KIDNEY_L ([…], time 7 day): 0.9 g
KIDNEY_R ([…], time 7 day): 0.9 g
KIDNEY_TOTAL ([…], time 7 day): 1.8 g
KIDNEY_L ([…], time 14 day): 1 g
KIDNEY_R ([…], time 14 day): 1 g
KIDNEY_TOTAL ([…], time 14 day): 2 g
KIDNEY_L ([…], time 28 day): 1.2 g
KIDNEY_R ([…], time 28 day): 1.2 g
KIDNEY_TOTAL ([…], time 28 day): 2.5 g
LIVER ([…], time 7 day): 8.1 g
LIVER ([…], time 14 day): 9.1 g
LIVER ([…], time 28 day): 11.7 g
A/G ([…], time 7 day): 0.9
ALP ([…], time 7 day): 1646.8 IU/L
ALT ([…], time 7 day): 51 IU/L
AST ([…], time 7 day): 88.4 IU/L
BUN ([…], time 7 day): 14.6 mg/dL
CRE ([…], time 7 day): 0.2 mg/dL
Ca ([…], time 7 day): 10.9 mg/dL
Cl ([…], time 7 day): 107.6 meq/L
DBIL ([…], time 7 day): 0.008 mg/dL
GLC ([…], time 7 day): 179.2 mg/dL
IP ([…], time 7 day): 7.8 mg/dL
K ([…], time 7 day): 4.4 meq/L
LDH ([…], time 7 day): 66.4 IU/L
Na ([…], time 7 day): 146 meq/L
PL ([…], time 7 day): 133.2 mg/dL
RALB ([…], time 7 day): 2.7 g/dL
TBIL ([…], time 7 day): 0.064 mg/dL
TC ([…], time 7 day): 87.4 mg/dL
TG ([…], time 7 day): 26 mg/dL
TP ([…], time 7 day): 5.7 g/dL
gamma-GTP ([…], time 7 day): 1.2 IU/L
A/G ([…], time 14 day): 0.8
ALP ([…], time 14 day): 1330.4 IU/L
ALT ([…], time 14 day): 43.8 IU/L
AST ([…], time 14 day): 65 IU/L
BUN ([…], time 14 day): 12.2 mg/dL
CRE ([…], time 14 day): 0.2 mg/dL
Ca ([…], time 14 day): 11.2 mg/dL
Cl ([…], time 14 day): 105.4 meq/L
DBIL ([…], time 14 day): 0.002 mg/dL
GLC ([…], time 14 day): 179.6 mg/dL
IP ([…], time 14 day): 7.9 mg/dL
K ([…], time 14 day): 4.7 meq/L
LDH ([…], time 14 day): 53.4 IU/L
Na ([…], time 14 day): 143 meq/L
PL ([…], time 14 day): 139.4 mg/dL
RALB ([…], time 14 day): 2.7 g/dL
TBIL ([…], time 14 day): 0.054 mg/dL
TC ([…], time 14 day): 91 mg/dL
TG ([…], time 14 day): 26.4 mg/dL
TP ([…], time 14 day): 5.8 g/dL
gamma-GTP ([…], time 14 day): 1 IU/L
A/G ([…], time 28 day): 0.8
ALP ([…], time 28 day): 1178.8 IU/L
ALT ([…], time 28 day): 40 IU/L
AST ([…], time 28 day): 56.8 IU/L
BUN ([…], time 28 day): 13 mg/dL
CRE ([…], time 28 day): 0.2 mg/dL
Ca ([…], time 28 day): 11 mg/dL
Cl ([…], time 28 day): 104.4 meq/L
DBIL ([…], time 28 day): 0.016 mg/dL
GLC ([…], time 28 day): 177.2 mg/dL
IP ([…], time 28 day): 7.4 mg/dL
K ([…], time 28 day): 4.3 meq/L
LDH ([…], time 28 day): 39.2 IU/L
Na ([…], time 28 day): 144.8 meq/L
PL ([…], time 28 day): 140.6 mg/dL
RALB ([…], time 28 day): 2.7 g/dL
TBIL ([…], time 28 day): 0.062 mg/dL
TC ([…], time 28 day): 84.4 mg/dL
TG ([…], time 28 day): 37.6 mg/dL
TP ([…], time 28 day): 6 g/dL
gamma-GTP ([…], time 28 day): 1 IU/L
